Experimental data from ChEMBL document CHEMBL1201862, “PubChem BioAssay data set” (2004).
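In this assay, cells in 96-well plates receive the compound at five concentrations for 48 hours. Endpoints are linearly interpolated between the surrounding concentrations. GI50 = concentration required for 50% inhibition of growth.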 The source made the active and inactive calls. Rule as the data show it: active = GI50 up to about 1.1 µM and inactive = higher.

Legend:
Assay in all cases: NCI anticancer screen, dose series, 48 h
[1] = tested on: 786-0
[2] = tested on: A549
[3] = tested on: ACHN
[4] = tested on: BT-549
[5] = tested on: CAKI-1
[6] = tested on: CCRF-CEM
[7] = tested on: DU-145
[8] = tested on: EKVX
[9] = tested on: HCT-116
[10] = tested on: HCT-15
[11] = tested on: HL-60
[12] = tested on: HOP-62
[13] = tested on: HOP-92
[14] = tested on: HT-29
[15] = tested on: IGROV-1
[16] = tested on: K562
[17] = tested on: KM12
[18] = tested on: LOX IMVI
[19] = tested on: M14
[20] = tested on: MDA-MB-231
[21] = tested on: MDA-MB-435
[22] = tested on: MDA-N
[23] = tested on: MOLT-4
[24] = tested on: NCI-H226
[25] = tested on: NCI-H23
[26] = tested on: NCI-H460
[27] = tested on: NCI/ADR-RES
[28] = tested on: OVCAR-3
[29] = tested on: OVCAR-4
[30] = tested on: OVCAR-5
[31] = tested on: OVCAR-8
[32] = tested on: PC-3
[33] = tested on: RPMI-8226
[34] = tested on: RXF 393
[35] = tested on: SF-295
[36] = tested on: SK-MEL-28
[37] = tested on: SK-MEL-2
[38] = tested on: SK-MEL-5
[39] = tested on: SN12C
[40] = tested on: SNB-19
[41] = tested on: SNB-75
[42] = tested on: SR
[43] = tested on: SW-620
[44] = tested on: TK-10
[45] = tested on: U-251
[46] = tested on: UACC-257
[47] = tested on: UACC-62
[48] = tested on: UO-31
[49] = tested on: COLO 205
[50] = tested on: HCC 2998
[51] = tested on: MCF7
[52] = tested on: Malme-3M
[53] = tested on: NCI-H522
[54] = tested on: SF-268
[55] = tested on: SF-539
[56] = tested on: SK-OV-3
[57] = tested on: A498
[58] = tested on: T47D

Measured: GI50

CC1CCC(C(=O)O)(C(Br)C(=O)O)CC1 (stereo unspecified)
> 100 µM: [10]
inactive: [1] > 100 µM | [2] > 100 µM | [3] > 100 µM | [4] > 100 µM | [5] > 100 µM | [6] > 100 µM | [7] > 100 µM | [8] > 100 µM | [9] > 100 µM | [11] > 100 µM | [12] > 100 µM | [13] > 100 µM | [14] > 100 µM | [15] > 100 µM | [16] > 100 µM | [17] > 100 µM | [18] > 100 µM | [19] > 100 µM | [20] > 100 µM | [21] > 100 µM | [22] > 100 µM | [23] > 100 µM | [24] > 100 µM | [25] > 100 µM | [26] > 100 µM | [27] > 100 µM | [28] > 100 µM | [29] > 100 µM | [30] > 100 µM | [31] > 100 µM | [32] > 100 µM | [33] > 100 µM | [34] > 100 µM | [35] > 100 µM | [36] > 100 µM | [37] > 100 µM | [38] > 100 µM | [39] > 100 µM | [40] > 100 µM | [41] > 100 µM | [42] > 100 µM | [43] > 100 µM | [44] > 100 µM | [45] > 100 µM | [46] > 100 µM | [47] > 100 µM | [48] > 100 µM

CC(CC(C)(C)[N+](C)(C)C)[N+](C)(C)C (stereo unspecified)
inactive: [1] > 100 µM | [2] > 100 µM | [3] > 100 µM | [4] > 100 µM | [5] > 100 µM | [6] > 100 µM | [49] > 100 µM | [7] > 100 µM | [8] > 100 µM | [50] > 100 µM | [9] > 100 µM | [11] > 100 µM | [12] > 100 µM | [13] > 100 µM | [14] > 100 µM | [15] > 100 µM | [16] > 100 µM | [17] > 100 µM | [19] > 100 µM | [51] > 100 µM | [22] > 100 µM | [23] > 100 µM | [52] > 10 µM | [24] > 100 µM | [25] > 100 µM | [26] > 100 µM | [53] > 100 µM | [27] > 100 µM | [28] > 100 µM | [29] > 100 µM | [30] > 100 µM | [31] > 100 µM | [32] > 100 µM | [33] > 100 µM | [34] > 100 µM | [54] > 100 µM | [35] > 100 µM | [55] > 100 µM | [36] > 100 µM | [38] > 100 µM | [56] > 100 µM | [39] > 100 µM | [40] > 100 µM | [41] 88.9 µM | [42] > 100 µM | [43] > 100 µM | [44] > 100 µM | [45] > 100 µM | [46] > 100 µM | [47] > 100 µM | [48] > 100 µM
> 100 µM: [10]

CCCCNC(=S)Nc1nc(C(=O)NNC(=S)Nc2ccccc2)cs1
inactive: [1] 40.1 µM | [57] 33.1 µM | [2] > 100 µM | [3] > 100 µM | [4] > 100 µM | [5] > 100 µM | [6] > 100 µM | [49] 32.7 µM | [7] > 100 µM | [8] > 100 µM | [50] > 100 µM | [9] > 100 µM | [12] > 100 µM | [13] 21.4 µM | [14] > 100 µM | [17] > 100 µM | [19] 82.8 µM | [51] > 100 µM | [20] 30.3 µM | [21] 61 µM | [22] > 100 µM | [23] > 100 µM | [24] > 100 µM | [25] > 100 µM | [26] > 100 µM | [27] > 100 µM | [28] > 100 µM | [29] > 100 µM | [30] > 100 µM | [31] > 100 µM | [32] > 100 µM | [33] > 100 µM | [54] > 100 µM | [35] > 100 µM | [55] > 100 µM | [37] 44.9 µM | [38] 40.4 µM | [56] > 100 µM | [39] > 100 µM | [40] > 100 µM | [41] 38.3 µM | [43] > 100 µM | [58] > 100 µM | [44] > 100 µM | [45] 21.1 µM | [46] > 100 µM | [47] > 100 µM | [48] > 100 µM
> 100 µM: [10]

COc1ccc2c(c1)OCC1Cc3cccc(OC)c3OC21 (stereo unspecified)
inactive: [1] > 100 µM | [57] > 100 µM | [2] 70 µM | [4] 26.9 µM | [5] > 100 µM | [6] 40 µM | [49] 41.6 µM | [7] > 100 µM | [8] 52.2 µM | [50] 93.3 µM | [9] 45.1 µM | [12] > 100 µM | [13] > 100 µM | [14] 72.8 µM | [15] 66.7 µM | [17] 65 µM | [18] 45.5 µM | [19] 96.2 µM | [20] 60.7 µM | [21] 28.7 µM | [22] 50.5 µM | [23] 28 µM | [52] 70.8 µM | [24] 67.3 µM | [25] 58.3 µM | [53] 55.6 µM | [27] 31.1 µM | [28] 51.2 µM | [30] > 100 µM | [31] 45.8 µM | [32] 35.6 µM | [33] 36.9 µM | [54] > 100 µM | [35] 64.6 µM | [55] > 100 µM | [37] 51.3 µM | [38] 17.7 µM | [56] > 100 µM | [39] > 100 µM | [42] 59.7 µM | [43] 60.3 µM | [58] 30.1 µM | [44] 40.3 µM | [45] > 100 µM | [46] 36.1 µM | [47] 71.1 µM | [48] 30.3 µM
48 µM: [10]

Cn1c(=O)oc2cc(C(O)CN3CCN(Cc4ccc5c(c4)OCO5)CC3)ccc21 (stereo unspecified)
> 100 µM: [10]
inactive: [1] > 100 µM | [57] > 100 µM | [2] > 100 µM | [3] > 100 µM | [4] > 100 µM | [5] > 100 µM | [6] > 100 µM | [49] > 100 µM | [7] > 100 µM | [8] > 100 µM | [50] > 100 µM | [9] > 100 µM | [11] > 100 µM | [12] > 100 µM | [13] > 100 µM | [14] > 100 µM | [15] > 100 µM | [16] > 100 µM | [17] > 100 µM | [18] > 100 µM | [19] > 100 µM | [51] > 100 µM | [20] > 100 µM | [21] > 100 µM | [23] > 100 µM | [52] > 100 µM | [24] > 100 µM | [25] > 100 µM | [26] > 100 µM | [53] > 100 µM | [27] > 100 µM | [28] > 100 µM | [29] > 100 µM | [30] > 100 µM | [31] > 100 µM | [32] > 100 µM | [34] > 100 µM | [54] > 100 µM | [35] > 100 µM | [55] > 100 µM | [36] > 100 µM | [56] > 100 µM | [39] > 100 µM | [40] > 100 µM | [41] 47 µM | [42] > 100 µM | [43] > 100 µM | [58] > 100 µM | [44] > 100 µM | [45] > 100 µM | [46] > 100 µM | [47] > 100 µM | [48] > 100 µM
